Measurements as given in EP0227593A1, “Use of chelating agents” (THE HOSPITAL FOR SICK CHILDREN, priority 1985, dated 1987).

Legend:
HL-60 cells [1] = assay: HL-60 colony growth with cytostatic compounds alone or with 1 µM DFO; format: cell-based, human; conditions: cytostatic alone, various concentrations
Procedure: HL-60 cells (10⁴/ml) were plated in 0.8 % methycellulose in RPMI-1640 medium supplemented with 20 % heat inactivated (56°C, 30 min) fetal calf serum at a final volume of 1 ml/culture plate. Cultures were set up in duplicates and maintained at 37°C in a 5 % CO₂ humidified atmosphere. Deferoxamine was dissolved in iron-free RPMI culture medium and added at the initiation of culture at different concentrations (1-10 µM). Colonies were counted at 7 days using an inverted microscope. A cluster of more than 20 cells was defined as a colony. Individual colonies were plucked from culture plates spread on glass slides and morphologically assessed after preparation with Wright's stain and non-specific esterase in the presence of fluoride (29). The self renewal capacity of cells was assessed according to McCulloch et al (30). RPMI-1640 medium was added to culture dishes for 2 hrs; the contents of each dish were then transferred into a tube, centrifuged and washed with medium three times. Cells from each dish were counted separately, and viability was assessed by trypan blue dye exclusion. Cells (1x10⁴/ml) from each dish were recultured in 0.8 % methylcellulose as before. […]
Cultures were evaluated at day 6 using an inverted microscope (100 x magnification). A cluster of more than 20 cells was determined as a colony.

Lewis lung carcinoma = assay: Tumour growth and metastases of Lewis lung carcinoma in mice; format: in vivo; conditions: 5 injections
Procedure: Female C57B16 mice (10 mice/group, 18-22 g body weight) were i.m. injected into the left hind leg with 0.1 ml of a tumour cell suspension of Lewis lung carcinoma (day 0).
Nine groups of animals were investigated. The test compounds were s.c. administered as follows: physiological saline: once daily for eleven days starting from day 0 up to day 10. DFO: 0.5 ml in distilled water in a dose of 10 and 30 mg/kg once daily for eleven days, on day 0 up to day 10 after tumour inocculation. 10-EDAM: 0.5 ml in distilled water in a dose of 3 and 6 mg/kg, once daily on days 1, 3, 5, 7 and 9 after tumour inocculation.
Both hind legs were removed from the body, weighed, and the difference between the tumour bearing and the tumour free leg was taken as the tumour weight of one idividual mouse.
Lungs were filled up with Pelikan-ink via the trachea, fixed in Fekete-solution and metastases (white spot on black back-ground) on the lung surface were counted microscopically.

L-1210 tumour cells = assay: L-1210 tumour growth in mice; format: in vivo; conditions: day 8
Procedure: One hour prior to kill on day 8 the mice received one ip injection of 0.002 mCi of 3H-thymidine per g body weight. Cells were harvested from the peritoneal cavity, the volume of ascites measured and the cell counts determined in a coulter counter, after lysis of red cells with zap-oglobin, for calculation of total tumour cell numbers. Also, of each sample cell smears were done, Feulgen stained and autoradiographed, whereby the number and percentage of labelled cells was determined and used as a measure for proliferating cells.

HL-60 cells [2] = assay: Colony growth of HL-60 cells; format: cell-based, human; conditions: concentration of 10 µm
Procedure: HL-60 cells, a promyeloctic leukemia cell line originally developed by Dr. R. Gallo, NIH, were used. Cells were grown in RPMI supplemented with 10 % heat inactivated fetal calf serum (FCS, Flow Laboratories, Rockville, MO) and 2 mM glutamine (Gibco, Berkely, CA), at densities ranging from 1-2 x 10⁵/ml to 1-10⁶/ml, in a 5 % CO₂ humidified atmosphere at 37°C.
HL-60 cells (10⁴/ml) were plated in 0.8 % methycellulose in RPMI-1640 medium supplemented with 20 % heat inactivated (56°C, 30 min) fetal calf serum at a final volume of 1 ml/culture plate. Cultures were set up in duplicates and maintained at 37°C in a 5 % CO₂ humidified atmosphere. Deferoxamine was dissolved in iron-free RPMI culture medium and added at the initiation of culture at different concentrations (1-10 µM). Colonies were counted at 7 days using an inverted microscope. A cluster of more than 20 cells was defined as a colony. Individual colonies were plucked from culture plates spread on glass slides and morphologically assessed after preparation with Wright's stain and non-specific esterase in the presence of fluoride (29). The self renewal capacity of cells was assessed according to McCulloch et al (30). RPMI-1640 medium was added to culture dishes for 2 hrs; the contents of each dish were then transferred into a tube, centrifuged and washed with medium three times. Cells from each dish were counted separately, and viability was assessed by trypan blue dye exclusion. Cells (1x10⁴/ml) from each dish were recultured in 0.8 % methylcellulose as before.

[3] = DFO 400 mg/kg/d s.c. minipump from day 2, Ara-C 200 mg/kg once ip on day 6

CN(Cc1cnc2nc(N)nc(N)c2n1)c1ccc(C(=O)N[C@@H](CCC(=O)O)C(=O)O)cc1 [methotrexate, L-(+)-N-[4-N-(2,4-diamino-6-pteridinyl)-methyl-N-methyl-amino]-benzoyl-L-glutamic acid]
HL-60 colony growth (HL-60 cells [1]): dose-dependent growth inhibitory effect

CCC(Cc1cnc2nc(N)nc(N)c2n1)c1ccc(C(=O)N[C@@H](CCC(=O)O)C(=O)O)cc1 (stereo partly drawn) [10-EDAM, N-[4-[1-(2,4-Diamino-6-pteridinyl)but-2-yl]-benzoyl]-L-glutamic acid]
Number of lung metastases % of control (Lewis lung carcinoma; group 4: 10-EDAM 3 mg/kg s.c.): 66%
Number of lung metastases x̄ ± SD (Lewis lung carcinoma; group 4: 10-EDAM 3 mg/kg s.c.): 44 ± 18
Tumour weight % of control (Lewis lung carcinoma; group 4: 10-EDAM 3 mg/kg s.c.): 91%
Tumour weight x̄ ± SD (Lewis lung carcinoma; group 4: 10-EDAM 3 mg/kg s.c.): 6.87 ± 0.47 g
Number of lung metastases % of control (Lewis lung carcinoma; group 5: 10-EDAM 6 mg/kg s.c.): 34%
Number of lung metastases x̄ ± SD (Lewis lung carcinoma; group 5: 10-EDAM 6 mg/kg s.c.): 23 ± 10
Tumour weight % of control (Lewis lung carcinoma; group 5: 10-EDAM 6 mg/kg s.c.): 89%
Tumour weight x̄ ± SD (Lewis lung carcinoma; group 5: 10-EDAM 6 mg/kg s.c.): 6.70 ± 1.06 g

Nc1ccn([C@@H]2O[C@H](CO)[C@@H](O)[C@@H]2O)c(=O)n1 [Ara-C, 1-β-D-arabinofuranosyl-cytosine]
HL-60 colony growth (HL-60 cells [1]): inhibited colony growth in a dose-dependent manner
proportions of proliferating cells (L-1210 tumour cells; 3H-thymidine labelled cells, same doses as Table 12): 26 % ± 6%
Number of cells in the peritoneal cavity % of control (L-1210 tumour cells; [3]): 30%
Number of cells in the peritoneal cavity x̄ ± SD (L-1210 tumour cells; [3]): 1.11 ± 0.40 * 10^8
Number of proliferating cells in peritoneal cavity % of control (L-1210 tumour cells; [3]): 24%
Number of proliferating cells in peritoneal cavity x̄ ± SD (L-1210 tumour cells; [3]): 0.29 ± 0.10 * 10^8

CC(=O)N([O-])CCCCCNC(=O)CCC(=O)N([O-])CCCCCNC(=O)CCC(=O)N([O-])CCCCCN.[Fe+3] [Ferrioxamine]
colony formation (HL-60 cells [2]): did not affect colony formation
